Measurements reported in ChEMBL document CHEMBL1201862, “PubChem BioAssay data set” (2004).
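Assay format: 96-well plates, 48-hour exposure. The concentration for 50% growth inhibition is given as GI50.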 Active and inactive are the calls of the source. No stated cut-off is given here; in the data, active = GI50 up to about 1.1 µM and inactive = higher.

Experiments:
Test in all cases: NCI anticancer screen, dose series, 48 h
786-0 = system: 786-0
A498 = system: A498
A549 = system: A549
ACHN = system: ACHN
BT-549 = system: BT-549
CAKI-1 = system: CAKI-1
CCRF-CEM = system: CCRF-CEM
COLO 205 = system: COLO 205
DLD-1 = system: DLD-1
DMS-114 = system: DMS-114
DMS-273 = system: DMS-273
DU-145 = system: DU-145
EKVX = system: EKVX
HCC 2998 = system: HCC 2998
HCT-116 = system: HCT-116
HCT-15 = system: HCT-15
HL-60 = system: HL-60
HOP-18 = system: HOP-18
HOP-62 = system: HOP-62
HOP-92 = system: HOP-92
HT-29 = system: HT-29
Hs-578T = system: Hs-578T
IGROV-1 = system: IGROV-1
K562 = system: K562
KM-20L2 = system: KM-20L2
KM12 = system: KM12
LOX IMVI = system: LOX IMVI
LXFL 529 = system: LXFL 529
M14 = system: M14
M19-MEL = system: M19-MEL
MCF7 = system: MCF7
MDA-MB-231 = system: MDA-MB-231
MDA-MB-435 = system: MDA-MB-435
MDA-N = system: MDA-N
MOLT-4 = system: MOLT-4
Malme-3M = system: Malme-3M
NCI-H226 = system: NCI-H226
NCI-H23 = system: NCI-H23
NCI-H460 = system: NCI-H460
NCI-H522 = system: NCI-H522
NCI/ADR-RES = system: NCI/ADR-RES
OVCAR-3 = system: OVCAR-3
OVCAR-4 = system: OVCAR-4
OVCAR-5 = system: OVCAR-5
OVCAR-8 = system: OVCAR-8
PC-3 = system: PC-3
RPMI-8226 = system: RPMI-8226
RXF 393 = system: RXF 393
SF-268 = system: SF-268
SF-295 = system: SF-295
SF-539 = system: SF-539
SK-MEL-28 = system: SK-MEL-28
SK-MEL-2 = system: SK-MEL-2
SK-MEL-5 = system: SK-MEL-5
SK-OV-3 = system: SK-OV-3
SN12C = system: SN12C
SNB-19 = system: SNB-19
SNB-75 = system: SNB-75
SNB-78 = system: SNB-78
SR = system: SR
SW-620 = system: SW-620
T47D = system: T47D
TK-10 = system: TK-10
U-251 = system: U-251
UACC-257 = system: UACC-257
UACC-62 = system: UACC-62
UO-31 = system: UO-31
XF498 = system: XF498
RXF 631 = system: RXF 631

Measured: GI50

COc1c(O)c2ccccc2c2cc(O)ccc12
6.34 µM: HCT-15
active: MDA-MB-435 1 µM | MDA-N 1.08 µM
inactive: 786-0 12.2 µM | A498 8.45 µM | A549 8.65 µM | ACHN 3.55 µM | BT-549 2.43 µM | CAKI-1 11.2 µM | CCRF-CEM 6.24 µM | COLO 205 16 µM | DLD-1 8.79 µM | DMS-114 1.97 µM | DMS-273 6.65 µM | DU-145 8.22 µM | EKVX 18.1 µM | HCC 2998 17.3 µM | HCT-116 4.53 µM | HL-60 2.86 µM | HOP-18 1.75 µM | HOP-62 10.6 µM | HOP-92 10.6 µM | HT-29 21 µM | Hs-578T 17.4 µM | IGROV-1 9.57 µM | K562 2.72 µM | KM-20L2 22.5 µM | KM12 11.6 µM | LOX IMVI 2 µM | LXFL 529 2.59 µM | M14 3.64 µM | M19-MEL 2.01 µM | MCF7 2.39 µM | MDA-MB-231 3.91 µM | MOLT-4 8.61 µM | Malme-3M 1.66 µM | NCI-H226 13.6 µM | NCI-H23 2.86 µM | NCI-H460 7.69 µM | NCI-H522 5.4 µM | NCI/ADR-RES 6.98 µM | OVCAR-3 8.81 µM | OVCAR-4 6.56 µM | OVCAR-5 13.4 µM | OVCAR-8 3.88 µM | PC-3 16.6 µM | RPMI-8226 7.21 µM | RXF 393 9.93 µM | SF-268 10.8 µM | SF-295 10 µM | SF-539 3.69 µM | SK-MEL-28 4.91 µM | SK-MEL-2 4.79 µM | SK-MEL-5 2.17 µM | SK-OV-3 20.5 µM | SN12C 5.2 µM | SNB-19 13.6 µM | SNB-75 8.17 µM | SNB-78 15.5 µM | SR 12.4 µM | SW-620 3.18 µM | T47D 13.5 µM | TK-10 25.4 µM | U-251 5.22 µM | UACC-257 2.1 µM | UACC-62 2.67 µM | UO-31 4.04 µM | XF498 2.69 µM

C/C(=N/NC(=O)C[n+]1ccccc1)C(CN(CC(C)C)CC(C)C)C(=O)Nc1ccc(C)cc1C (stereo not drawn)
inactive: 786-0 > 100 µM | A498 25.4 µM | A549 > 100 µM | ACHN 54.5 µM | CCRF-CEM > 100 µM | COLO 205 > 100 µM | DLD-1 > 100 µM | DMS-114 > 100 µM | EKVX 45.1 µM | HCC 2998 > 100 µM | HCT-116 > 100 µM | HL-60 59.6 µM | HOP-62 90.8 µM | HOP-92 43.3 µM | HT-29 > 100 µM | IGROV-1 > 100 µM | K562 > 100 µM | KM-20L2 > 100 µM | M14 > 100 µM | M19-MEL > 100 µM | MOLT-4 > 100 µM | Malme-3M > 100 µM | NCI-H23 > 100 µM | NCI-H460 > 100 µM | NCI-H522 40.8 µM | OVCAR-4 > 100 µM | OVCAR-5 65.5 µM | OVCAR-8 > 100 µM | RPMI-8226 68.1 µM | RXF 393 61.2 µM | RXF 631 > 100 µM | SF-268 > 100 µM | SF-539 > 100 µM | SK-MEL-28 > 100 µM | SK-MEL-2 > 100 µM | SK-MEL-5 > 100 µM | SK-OV-3 > 100 µM | SN12C 51.4 µM | SNB-19 26.7 µM | SR > 100 µM | SW-620 > 100 µM | TK-10 78.2 µM | UACC-257 > 100 µM | UACC-62 > 100 µM | UO-31 15.1 µM
